{"source": "paper PMC7151078", "about": "“A Novel NMDA Receptor Antagonist Protects against Cognitive Decline Presented by Senescent Mice” (Pharmaceutics, 2020)", "format_in_all_cases": "in vivo, mouse", "key": {"[1]": {"system": "SAMR1 and SAMP8 mice", "experiment": "Novel object recognition test (NORT)", "conditions": "5 mg/kg/day", "description": "Male SAMR1 and SAMP8 mice (n = 41) with 20-weeks-old were used to carry out cognitive and molecular analysis. The animals were randomly divided into four groups: SAMR1 control (SR1 Ct) group (n = 11), SAMP8 control (SP8 Ct) group (n = 8), SAMR1 treated with RL-208 (SR1 RL-208 (5 mg/Kg)) group (n = 10) and SAMP8 treated with RL-208 (SP8 RL-208 (5 mg/Kg)) group (n = 12). Animals had free access to food and water, under standard temperature conditions (22±2 °C) and 12h:12h light-dark cycles (300 lux/0 lux). RL-208, (3,4,8,9-tetramethyltetracyclo[4.4.0.0^3,9.0^4,8]dec-1-yl)-methylamine hydrochloride, (5 mg/kg/day) was administered through drinking water for four weeks before starting the cognitive test. RL-208 was administered up to euthanasia (Figure 1A). Water consumption was controlled each week for each cage and strain. Afterwards, RL-208 concentration was adjusted accordingly to reach the optimal dose for each cage. The novel object recognition test (NORT) allows evaluating short- and long-term recognition memory involving cortical areas and the hippocampus. The experimental apparatus used for this test was a 90º, two-arm, 25-cm-long, 20-cm-high, and a 5-cm-wide black maze of black polyvinyl chloride (Figure 1D). The walls could be removed for easy cleaning with 70% ethanol to eliminate olfactory cues, and light intensity in mid-field was 30 lux. The objects to be discriminated were made of plastic and chosen not to frighten mice and without any part likely to be bitten. Before performing the test, the mice were individually habituated to the apparatus for 10 min during 3 consecutive days. On day four the next day, the animals were allowed to explore freely a 10 min acquisition trial (First trial), during which they were placed in the maze in the presence of two identical novel objects (A+A’ or B+B’) at the end of each arm. The mouse was then removed from the apparatus and returned to its home cage. A 10 min retention trial (Second trial) was carried out two hours later. […] The time that mice explored the novel object (TN) and time that mice explored the old object (TO) were measured from the video recordings from each trial session Exploration of an object was defined as pointing the nose towards the object at a distance ≤2 cms and/or touching it with the nose. […] To avoid object preference biases objects A and B were counterbalanced so that one-half of the animals in each experimental group were first exposed to object A and then to object B, whereas the other half first saw object B and then object A. To evaluate the cognitive performance, the discrimination index (DI) was calculated, which is defined as (TN-TO)/(TN+TO)."}, "[2]": {"system": "SAMR1 and SAMP8 mice", "experiment": "Hippocampal gene expression by real-time qPCR", "conditions": "hippocampus", "description": "Male SAMR1 and SAMP8 mice (n = 41) with 20-weeks-old were used to carry out cognitive and molecular analysis. The animals were randomly divided into four groups: SAMR1 control (SR1 Ct) group (n = 11), SAMP8 control (SP8 Ct) group (n = 8), SAMR1 treated with RL-208 (SR1 RL-208 (5 mg/Kg)) group (n = 10) and SAMP8 treated with RL-208 (SP8 RL-208 (5 mg/Kg)) group (n = 12). Animals had free access to food and water, under standard temperature conditions (22±2 °C) and 12h:12h light-dark cycles (300 lux/0 lux). RL-208, (3,4,8,9-tetramethyltetracyclo[4.4.0.0^3,9.0^4,8]dec-1-yl)-methylamine hydrochloride, (5 mg/kg/day) was administered through drinking water for four weeks before starting the cognitive test. RL-208 was administered up to euthanasia (Figure 1A). Water consumption was controlled each week for each cage and strain. Afterwards, RL-208 concentration was adjusted accordingly to reach the optimal dose for each cage. Total RNA isolation from hippocampal samples was carried out using TRIsure^TM reagent following the manufacturer’s instructions (Bioline, Meridian Bioscience Inc., UK). The yield, purity, and quality of RNA were determined spectrophotometrically with a NanoDrop^TM ND-1000 (Thermo Scientific, Wilmington, DE, USA) apparatus and an Agilent 2100B Bioanalyzer (Agilent Technologies, Palo Alto, CA, USA). RNAs with 260/280 ratios and RIN higher than 1.9 and 7.5, respectively, were selected. Reverse transcription-polymerase chain reaction (RT-PCR) was performed as follows: 2 μg of messenger RNA (mRNA) was reverse-transcribed using the High Capacity cDNA Reverse Transcription kit (Applied Biosystems, Foster City, CA, USA). Real-time quantitative PCR (qPCR) was used to quantify the mRNA expression of OS and synaptic plasticity genes listed in Table S2. SYBR® Green real-time PCR was performed on a Step One Plus Detection System (Applied-Biosystems, Foster City, CA, USA) employing SYBR® Green PCR Master Mix (Applied-Biosystems, Foster City, CA, USA). Each reaction mixture contained 6.75 μL of complementary DNA (cDNA) (which concentration was 2 μg), 0.75 μL of each primer (which concentration was 100 nM), and 6.75 μL of SYBR® Green PCR Master Mix (2X). Data were analyzed utilizing the comparative cycle threshold (Ct) method (ΔΔCt), where the housekeeping gene level was used to normalize differences in sample loading and preparation. Normalization of expression levels was performed with β-actin for SYBR® Green-based real-time PCR results. Each sample was analyzed in duplicate, and the results represent the n-fold difference of the transcript levels among different groups."}, "[3]": {"system": "SAMR1 and SAMP8 mice", "experiment": "Oxidative stress: hydrogen peroxide levels (fluorimetric kit)", "conditions": "hippocampus, both RL-208 treated mice groups vs control groups", "description": "Male SAMR1 and SAMP8 mice (n = 41) with 20-weeks-old were used to carry out cognitive and molecular analysis. The animals were randomly divided into four groups: SAMR1 control (SR1 Ct) group (n = 11), SAMP8 control (SP8 Ct) group (n = 8), SAMR1 treated with RL-208 (SR1 RL-208 (5 mg/Kg)) group (n = 10) and SAMP8 treated with RL-208 (SP8 RL-208 (5 mg/Kg)) group (n = 12). Animals had free access to food and water, under standard temperature conditions (22±2 °C) and 12h:12h light-dark cycles (300 lux/0 lux). RL-208, (3,4,8,9-tetramethyltetracyclo[4.4.0.0^3,9.0^4,8]dec-1-yl)-methylamine hydrochloride, (5 mg/kg/day) was administered through drinking water for four weeks before starting the cognitive test. RL-208 was administered up to euthanasia (Figure 1A). Water consumption was controlled each week for each cage and strain. Afterwards, RL-208 concentration was adjusted accordingly to reach the optimal dose for each cage. […]"}}}
{"molecule": "CC12CC3CC1(C)C1(C)CC3(CN)CC21C.Cl", "note": "[RL-208, (3,4,8,9-tetramethyltetracyclo [4.4.0.0^3,9.0^4,8]dec-1-yl)methylamine hydrochloride]", "values": [{"measurement": "NORT short-term recognition memory (DI)", "setting": "[1]; SP8 RL-208 vs SP8 Ct, 2 h retention", "result": "significant gain"}, {"measurement": "NORT long-term recognition memory (DI)", "setting": "[1]; SP8 RL-208 vs SP8 Ct, 24 h retention", "result": "significant gain"}, {"measurement": "NORT long-term DI", "setting": "[1]; between SR1 groups", "result": "no significant changes"}, {"measurement": "NORT short-term DI", "setting": "[1]; between SR1 groups", "result": "no significant changes"}, {"measurement": "Tgf gene expression", "setting": "[2]; RL-208 treated mice groups vs control groups", "result": "significant gain"}, {"measurement": "Vgf gene expression", "setting": "[2]; SP8 RL-208 vs SP8 Ct", "result": "significant increase"}, {"measurement": "Vgf gene expression", "setting": "[2]; between SR1 mice groups", "result": "no changes"}, {"measurement": "Cox2 gene expression", "setting": "[2]; treated groups vs controls, significant in the SP8 strain", "result": "decreased"}, {"measurement": "Hmox1 gene expression", "setting": "[2]; treated mice", "result": "elevated"}, {"measurement": "hydrogen peroxide (ROS) levels", "setting": "[3]", "result": "significant decrease"}]}
